Data as given in PubChem BioAssay AID248 (DTP/NCI, 2004).
Values joined by “and” are separate entries in the source; they are usually repeats but may differ in a detail not shown here. Equal entries are not always repeated. Inconclusive results and toxic doses are left out. Cut-off read from the data, not from the text of the source: active = T/C of 150% or more; inactive = T/C below 125%.

Tested on: L1210 leukemia ip in BDF1 mice, survival T/C
Experiment: NCI In Vivo Anticancer Drug Screen. Data for tumor model L1210 Leukemia (intraperitoneal) in B6D2F1 (BDF1) mice
Conditions: endpoint: mean survival time, higher = longer survival
Procedure, shortened: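 Transplanted-tumor mice were given test agent; controls received vehicle only. Survival readings from the two groups were divided (treated over control).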

[1] = dose: 100.0 mg/kg/injection, schedule: Q01DX001 (ip), vehicle: saline
[2] = dose: 100.0 mg/kg/injection, schedule: Q01DX009 (ip), vehicle: saline
[3] = dose: 200.0 mg/kg/injection, schedule: Q01DX001 (ip), vehicle: saline
[4] = dose: 200.0 mg/kg/injection, schedule: Q01DX009 (ip), vehicle: saline
[5] = dose: 400.0 mg/kg/injection, schedule: Q01DX001 (ip), vehicle: saline
[6] = dose: 100.0 mg/kg/injection, schedule: Q04DX003 (ip), vehicle: Klucel (hydroxypropylcellulose) (HPC)
[7] = dose: 200.0 mg/kg/injection, schedule: Q04DX003 (ip), vehicle: Klucel (hydroxypropylcellulose) (HPC)
[8] = dose: 400.0 mg/kg/injection, schedule: Q04DX003 (ip), vehicle: Klucel (hydroxypropylcellulose) (HPC)
[9] = dose: 100.0 mg/kg/injection, schedule: Q04DX003 (ip), vehicle: saline with Tween-80
[10] = dose: 200.0 mg/kg/injection, schedule: Q04DX003 (ip), vehicle: saline with Tween-80
[11] = dose: 400.0 mg/kg/injection, schedule: Q04DX003 (ip), vehicle: saline with Tween-80
[12] = dose: 100.0 mg/kg/injection, schedule: Q01DX001 (ip), vehicle: saline with Tween-80
[13] = dose: 200.0 mg/kg/injection, schedule: Q01DX001 (ip), vehicle: saline with Tween-80
[14] = dose: 400.0 mg/kg/injection, schedule: Q01DX001 (ip), vehicle: saline with Tween-80
[15] = dose: 100.0 mg/kg/injection, schedule: Q01DX009 (ip), vehicle: Klucel (hydroxypropylcellulose) (HPC)
[16] = dose: 200.0 mg/kg/injection, schedule: Q01DX009 (ip), vehicle: Klucel (hydroxypropylcellulose) (HPC)
[17] = dose: 400.0 mg/kg/injection, schedule: Q01DX009 (ip), vehicle: Klucel (hydroxypropylcellulose) (HPC)
[18] = dose: 100.0 mg/kg/injection, schedule: Q01DX001 (ip), vehicle: carboxymethylcellulose (CMC)
[19] = dose: 200.0 mg/kg/injection, schedule: Q01DX001 (ip), vehicle: carboxymethylcellulose (CMC)
[20] = dose: 400.0 mg/kg/injection, schedule: Q01DX001 (ip), vehicle: carboxymethylcellulose (CMC)

Measured: T/C

CC12CCC(C(Br)C1=O)C2(C)CS(=O)(=O)O (configuration not stated)
inactive: [1] 104 % of control and 101 % of control | [2] 89 % of control | dose: 100.0 mg/kg/injection, schedule: Q04DX003 (ip), vehicle: saline 95 % of control | [3] 93 % of control and 104 % of control | [4] 97 % of control | dose: 200.0 mg/kg/injection, schedule: Q04DX003 (ip), vehicle: saline 97 % of control | [5] 104 % of control | dose: 400.0 mg/kg/injection, schedule: Q01DX009 (ip), vehicle: saline 92 % of control | dose: 400.0 mg/kg/injection, schedule: Q04DX003 (ip), vehicle: saline 95 % of control

Clc1cc(Cl)c(/C=C/c2c(Cl)cc(Cl)cc2Cl)c(Cl)c1
inactive: [6] 98 % of control | [7] 93 % of control | [8] 95 % of control

O=[N+]([O-])c1ccc(N2CCN=N2)cc1
inactive: dose: 8.0 mg/kg/injection, schedule: Q01DX015 (ip), vehicle: saline 107 % of control | dose: 16.0 mg/kg/injection, schedule: Q01DX015 (ip), vehicle: saline 110 % of control | dose: 32.0 mg/kg/injection, schedule: Q01DX015 (ip), vehicle: saline 113 % of control | dose: 64.0 mg/kg/injection, schedule: Q01DX015 (ip), vehicle: saline 116 % of control | [1] 103 % of control | dose: 100.0 mg/kg/injection, schedule: Q04DX003 (ip), vehicle: saline sonified 104 % of control | [5] 111 % of control

CCCCCCC(C)NCC(C)O (configuration not stated)
inactive: dose: 75.0 mg/kg/injection, schedule: Q01DX001 (ip), vehicle: acid diluted with saline 96 % of control

O=C(O)CCNCc1ccccc1
inactive: dose: 50.0 mg/kg/injection, schedule: Q01DX009 (ip), vehicle: saline 100 % of control | [2] 108 % of control | dose: 100.0 mg/kg/injection, schedule: Q04DX002 (ip), vehicle: saline 111 % of control | [4] 100 % of control | dose: 200.0 mg/kg/injection, schedule: Q04DX002 (ip), vehicle: saline 97 % of control | dose: 400.0 mg/kg/injection, schedule: Q04DX002 (ip), vehicle: saline 97 % of control

COc1ccccc1-n1c(O)c(N=Nc2ccc(Br)cc2)c(=O)n(-c2ccc(I)cc2)c1=S
inactive: dose: 50.0 mg/kg/injection, schedule: Q01DX001 (ip), vehicle: Klucel (hydroxypropylcellulose) (HPC) 102 % of control | dose: 100.0 mg/kg/injection, schedule: Q01DX001 (ip), vehicle: Klucel (hydroxypropylcellulose) (HPC) 112 % of control | dose: 200.0 mg/kg/injection, schedule: Q01DX001 (ip), vehicle: Klucel (hydroxypropylcellulose) (HPC) 102 % of control

N#CCCC#N (tested in a mixture with another compound)
inactive: [9] 96 % of control | [10] 102 % of control

CC1=COC(C)(C(=O)O)CC1 (configuration not stated)
inactive: dose: 55.0 mg/kg/injection, schedule: Q01DX Z (ip), vehicle: methylcellulose (MC) 100 % of control | dose: 83.0 mg/kg/injection, schedule: Q01DX Z (ip), vehicle: methylcellulose (MC) 86 % of control | dose: 125.0 mg/kg/injection, schedule: Q01DX Z (ip), vehicle: methylcellulose (MC) 102 % of control

O=C1C=C(c2ccccc2)CO1
inactive: [1] 104 % of control | [3] 122 % of control | [5] 98 % of control

ClC(Cl)=C(Cl)c1ccccc1
inactive: dose: 25.6 mg/kg/injection, schedule: Q04DX002 (ip), vehicle: saline with Tween-80 93 % of control | dose: 64.0 mg/kg/injection, schedule: Q04DX002 (ip), vehicle: saline with Tween-80 87 % of control | [9] 98 % of control | dose: 160.0 mg/kg/injection, schedule: Q04DX002 (ip), vehicle: saline with Tween-80 90 % of control | [10] 93 % of control | dose: 400.0 mg/kg/injection, schedule: Q04DX002 (ip), vehicle: saline with Tween-80 93 % of control | [11] 93 % of control

C(CCCCCC1CCC2CCCC2C1)CCCCC1CCC2CCCC2C1 (configuration not stated)
inactive: [12] 87 % of control | [13] 101 % of control | [14] 87 % of control

CON1C(=O)C2(CCCCC2)C2=NOC3C(Br)CCCC231 (configuration not stated)
inactive: [12] 92 % of control | [9] 106 % of control | [13] 95 % of control | [10] 97 % of control | [14] 95 % of control | [11] 95 % of control

COC(=O)c1cc(C)c(Br)c(N)c1
inactive: [15] 101 % of control | [6] 100 % of control | [16] 101 % of control | [7] 92 % of control | [17] 98 % of control | [8] 95 % of control

CC(C)(Cl)CNC(=O)c1ccc([N+](=O)[O-])cc1
inactive: [15] 92 % of control | [6] 107 % of control | [16] 96 % of control | [7] 94 % of control | [17] 91 % of control | [8] 92 % of control

O=C(Nc1ccc(C2=NCCN2)cc1)Nc1cc(NC(=O)Nc2ccc(C3=NCCN3)cc2)cc(C(=O)O)c1
inactive: dose: 120.0 mg/kg/injection, schedule: Q01DX Z (ip), vehicle: carboxymethylcellulose (CMC) 106 % of control | dose: 240.0 mg/kg/injection, schedule: Q01DX Z (ip), vehicle: carboxymethylcellulose (CMC) 102 % of control | dose: 250.0 mg/kg/injection, schedule: Q01DX Z (ip), vehicle: water 93 % of control | dose: 500.0 mg/kg/injection, schedule: Q01DX Z (ip), vehicle: water 94 % of control

CCC1([N+](=O)[O-])COP(=O)(N2CC2C)OC1 (configuration not stated)
inactive: [18] 98 % of control | [19] 96 % of control | [20] 98 % of control

CCOC(=O)c1c[nH]c2c(Cl)cccc2c1=O
inactive: dose: 50.0 mg/kg/injection, schedule: Q01DX001 (ip), vehicle: saline 97 % of control | [1] 100 % of control | [3] 94 % of control | [5] 94 % of control

COC1OC2COC(c3ccccc3)OC2C(OS(=O)(=O)c2ccc(C)cc2)C1OS(=O)(=O)c1ccc(C)cc1 (configuration not stated)
inactive: dose: 100.0 mg/kg/injection, schedule: Q01DX009 (ip), vehicle: saline with Tween-80 93 % of control | [9] 88 % of control | dose: 200.0 mg/kg/injection, schedule: Q01DX009 (ip), vehicle: saline with Tween-80 90 % of control | [10] 91 % of control | dose: 400.0 mg/kg/injection, schedule: Q01DX009 (ip), vehicle: saline with Tween-80 95 % of control

COc1ccc(Cc2nc(-c3ccc(N=Cc4ccc(N(CCCl)CCCl)cc4)cc3)cs2)cc1
inactive: dose: 50.0 mg/kg/injection, schedule: Q01DX001 (ip), vehicle: carboxymethylcellulose (CMC) 88 % of control | [18] 92 % of control | [19] 97 % of control | [20] 94 % of control

CC(C)(C(Cl)Cl)S(=O)(=O)O (tested in a mixture with another compound)
inactive: dose: 9.0 mg/kg/injection, schedule: Q01DX001 (ip), vehicle: other 95 % of control | dose: 18.0 mg/kg/injection, schedule: Q01DX001 (ip), vehicle: other 106 % of control | dose: 37.0 mg/kg/injection, schedule: Q01DX001 (ip), vehicle: other 103 % of control | dose: 75.0 mg/kg/injection, schedule: Q01DX001 (ip), vehicle: other 98 % of control | dose: 75.0 mg/kg/injection, schedule: Q01DX009 (ip), vehicle: saline with Tween-80 107 % of control | dose: 75.0 mg/kg/injection, schedule: Q04DX003 (ip), vehicle: other 111 % of control | dose: 150.0 mg/kg/injection, schedule: Q01DX001 (ip), vehicle: other 101 % of control | dose: 150.0 mg/kg/injection, schedule: Q01DX009 (ip), vehicle: saline with Tween-80 105 % of control | dose: 150.0 mg/kg/injection, schedule: Q04DX003 (ip), vehicle: other 118 % of control | dose: 300.0 mg/kg/injection, schedule: Q01DX001 (ip), vehicle: other 113 % of control | dose: 300.0 mg/kg/injection, schedule: Q01DX009 (ip), vehicle: saline with Tween-80 102 % of control | dose: 300.0 mg/kg/injection, schedule: Q04DX003 (ip), vehicle: other 116 % of control
